The values below come from patent US4814340A, “1,4-diaryl alkane derivatives having insecticidal and acaricidal activity” (priority 1982, dated 1989).

The subject of one data set is German cockroach (female adults). Kind of data set: Test 3 (Effect on German Cockroach). The format is in vivo, Blatella germanica (German cockroach). The following applies: Blattella germanica; 1 mg/m^2; 48 hours; female adults; read-out: Mortality (%). The procedure:
(§1) Compounds (a) through (g) described below were tested as comparative compounds in the same manner as the compounds of the present invention. All the tests were doubly carried out. Namely, each result was expressed by an average value of two data.
One ml of an acetone solution of a test compound of a specified concentration was poured in a high Petri dish having a diameter of 9 cm and a height of 9 cm. The Petri dish was allowed to stand, and thereby the acetone was evaporated. The upper part of the inner wall of the Petri dish was treated with butter to prevent the adults of German cockroach from escaping from the Petri dish. 10 female adults of German cockroach were set free in each Petri dish. 48 hours after, the number of killed adults was counted.
One may read the mortality as the share of the test organisms that died. For the molecule `CC(C)(CCCc1cccc(Oc2ccccc2)c1)c1ccc(OC(F)(F)C(F)F)cc1` [Compound 65], the mortality at 1 mg/m2 is 30%.

The data set is the same for the next values; noted with them: Blattella germanica; 5 mg/m^2; 48 hours; female adults; read-out: Mortality (%).
On to `CC(C)(CCCc1cccc(Oc2ccccc2)c1)c1ccc(OC(F)(F)C(F)F)cc1` [Compound 65], for which the mortality at 5 mg/m2 stood at 95%.

The test system of another data set is green rice leafhopper (female adults). Nature of the data set: Test 2 (Effect on Green Rice Leafhopper). The data set is classed as in vivo. The settings on record: Nephotettix cincticeps; 20 ppm; 48 hours; female adults; read-out: Mortality (%). The protocol: as §1
Four or five seedlings of paddy rice with three leaves were bundled, and thereon the same dilution of the emulsifiable concentrate as used in Test 1 was sprayed in an amount of 3 ml. The bundle was dried and covered with a metal net cylinder, and 10 female adults of green rice leafhopper were set free in the cylinder. 48 hours after, the number of killed adults was counted.
Regarding `CC(C)(CCCc1cccc(Oc2ccccc2)c1)c1ccc(Cl)cc1` [Compound 8, 1-(3-phenoxyphenyl)-4-(4-chlorophenyl)-4-methylpentane], the mortality at 20 ppm came out at 100%.

As to `CC(C)(CCCc1cccc(Oc2ccccc2)c1)c1ccccc1` [Compound 17], the mortality at 20 ppm is 95%.

As to `CCOc1ccc(C2(CCCc3ccc(F)c(Oc4ccccc4)c3)CCC2)cc1` [Compound 38, 1-(3-Phenoxy-4-fluorophenyl)-3-[1-(4-ethoxyphenyl)cyclobutyl]propane], the mortality at 20 ppm was 100%.

Regarding `CCOc1ccc(C(C)(C)CCCc2cccc(Oc3ccc(F)cc3)n2)cc1` [Compound 40], the mortality at 20 ppm is 60%.

Turning to `CCOc1ccc(C(C)(C)CCCc2cccc(Oc3ccc(F)cc3)c2)cc1` [Compound 41], the mortality at 20 ppm was 100%.

`CC(C)(CCCc1cccc(Oc2ccccn2)c1)c1ccc(Cl)cc1` [Compound 43]: the mortality at 20 ppm amounted to 75%.

As to `COCc1ccc(C(C)(C)CCCc2cccc(Oc3ccccc3)c2)cc1` [Compound 61], the mortality at 20 ppm was 100%.

Consider `CC(C)(CCCc1cccc(Oc2ccccc2)c1)c1ccc(OC(F)(F)C(F)F)cc1` [Compound 65], for which the mortality at 20 ppm was determined as 100%.

Consider `CCOc1ccc(C(C)(C)CCCc2ccc(F)c(Oc3ccc(F)cc3)c2)cc1Cl` [Compound 67], for which the mortality at 20 ppm turned out to be 100%.

The data set is the same for the next values; noted with them: Nephotettix cincticeps; 100 ppm; 48 hours; female adults; read-out: Mortality (%).
Regarding `CC(C)(CCCc1cccc(Oc2ccccc2)c1)c1ccc(Cl)cc1` [Compound 8, 1-(3-phenoxyphenyl)-4-(4-chlorophenyl)-4-methylpentane], the mortality at 100 ppm was found to be 100%.

On to `CC(C)(CCCc1cccc(Oc2ccccc2)c1)c1ccccc1` [Compound 17], for which the mortality at 100 ppm was 100%.

With `CCOc1ccc(C2(CCCc3ccc(F)c(Oc4ccccc4)c3)CCC2)cc1` [Compound 38, 1-(3-Phenoxy-4-fluorophenyl)-3-[1-(4-ethoxyphenyl)cyclobutyl]propane], the mortality at 100 ppm stood at 100%.

As for `CCOc1ccc(C(C)(C)CCCc2cccc(Oc3ccc(F)cc3)n2)cc1` [Compound 40], the mortality at 100 ppm worked out at 100%.

With `CCOc1ccc(C(C)(C)CCCc2cccc(Oc3ccc(F)cc3)c2)cc1` [Compound 41], the mortality at 100 ppm came to 100%.

In the case of `CC(C)(CCCc1cccc(Oc2ccccn2)c1)c1ccc(Cl)cc1` [Compound 43], the mortality at 100 ppm is 100%.

For the molecule `COCc1ccc(C(C)(C)CCCc2cccc(Oc3ccccc3)c2)cc1` [Compound 61], the mortality at 100 ppm is 100%.

For the molecule `CC(C)(CCCc1cccc(Oc2ccccc2)c1)c1ccc(OC(F)(F)C(F)F)cc1` [Compound 65], the mortality at 100 ppm was 100%.

Consider `CCOc1ccc(C(C)(C)CCCc2ccc(F)c(Oc3ccc(F)cc3)c2)cc1Cl` [Compound 67], for which the mortality at 100 ppm stood at 100%.

The next data set concerns two-spotted spider mite (adults). Nature of the data set: Test 4 (Effect on Two-Spotted Spider Mite). The data set is classed as in vivo. The following applies: Tetranychus urticae, 24 h. The protocol: as §1
A kidney bean leaf disc (20 mm in diameter) perforated with a cork borer was placed on water-impregnated absorbent cotton, and thereon 20 adults of two-spotted spider mite were set free, and the resulting set was allowed to stand around the clock. The same dilution of the emulsifiable concentrate of a test compound having a concentration of 200 ppm as used in Test 1 and Test 2, was applied by an applicator having a diameter of 20 cm and a height of 60 cm in an amount of 3 ml. 24 hours after, the number of killed adults was counted.
In the case of `COP(=O)(OC)OC=C(Cl)Cl` [(a), 0,0-dimethyl-0-(2,2-dichlorovinyl)phosphate, reference compound], the mortality at 200 ppm was 33%.

With `OC(c1ccc(Cl)cc1)(c1ccc(Cl)cc1)C(Cl)(Cl)Cl` [(e), Kelthane, reference compound], the mortality at 200 ppm is 100%.

Still in this data set, the particulars now being: Tetranychus urticae; 200 ppm; 24 hours; adults; read-out: Mortality (%).
Regarding `CCOc1ccc(C(C)(C)CCCc2cccc(Oc3ccc(F)cc3)n2)cc1` [Compound 40], the mortality at 200 ppm turned out to be 70%.

Consider `CC(C)(CCCc1cccc(Oc2ccccn2)c1)c1ccc(Cl)cc1` [Compound 43], for which the mortality at 200 ppm amounted to 60%.

For `COCc1ccc(C(C)(C)CCCc2cccc(Oc3ccccc3)c2)cc1` [Compound 61], the mortality at 200 ppm is 93%.

Another data set concerns yearling carps. Kind of data set: Test 5 (Fish Toxicity). The following applies: 0.1 ppm in water. The format is in vivo, carp. The procedure:
as §1
A water tank having a width of 60 cm, a length of 30 cm and a height of 40 cm was filled with water, and 10 yearling carps having a body length of about 5 cm were set free in the tank and adapted to the environment in the tank. An acetone solution of a test compound was applied into water so as to become a concentration of 1 or 0.1 ppm in water by adding said acetone solution at a rate of one part by volume per 100 parts by volume of water. 48 hours after, the number of killed and living carps was counted and the effect of a test compound on carps was examined.
On to `CC(C)(CCCc1cccc(Oc2ccccc2)c1)c1ccc(Cl)cc1` [Compound 8, 1-(3-phenoxyphenyl)-4-(4-chlorophenyl)-4-methylpentane], for which the “Mortality(%) 48 Hours After” value came to 0%.

Regarding `CC(C)(CCCc1cccc(Oc2ccccc2)c1)c1ccccc1` [Compound 17], the “Mortality(%) 48 Hours After” value was determined as 0%.

`CCOc1ccc(C2(CCCc3ccc(F)c(Oc4ccccc4)c3)CCC2)cc1` [Compound 38, 1-(3-Phenoxy-4-fluorophenyl)-3-[1-(4-ethoxyphenyl)cyclobutyl]propane]: the “Mortality(%) 48 Hours After” value is on record as 0%.

Turning to `CCOc1ccc(C(C)(C)CCCc2cccc(Oc3ccc(F)cc3)c2)cc1` [Compound 41], the “Mortality(%) 48 Hours After” value turned out to be 0%.

On to `CCOc1ccc(C(C)(C)CCCc2ccc(F)c(Oc3ccc(F)cc3)c2)cc1Cl` [Compound 67], for which the “Mortality(%) 48 Hours After” value came out at 0%.

Still in this data set, the particulars now being: 1 ppm in water.
As to `CC(C)(CCCc1cccc(Oc2ccccc2)c1)c1ccc(Cl)cc1` [Compound 8, 1-(3-phenoxyphenyl)-4-(4-chlorophenyl)-4-methylpentane], the “Mortality(%) 48 Hours After” value came out at 0%.

Consider `CC(C)(CCCc1cccc(Oc2ccccc2)c1)c1ccccc1` [Compound 17], for which the “Mortality(%) 48 Hours After” value is 0%.

As for `CCOc1ccc(C2(CCCc3ccc(F)c(Oc4ccccc4)c3)CCC2)cc1` [Compound 38, 1-(3-Phenoxy-4-fluorophenyl)-3-[1-(4-ethoxyphenyl)cyclobutyl]propane], the “Mortality(%) 48 Hours After” value was 0%.

With `CCOc1ccc(C(C)(C)CCCc2cccc(Oc3ccc(F)cc3)c2)cc1` [Compound 41], the “Mortality(%) 48 Hours After” value amounted to 0%.

As to `CCOc1ccc(C(C)(C)CCCc2ccc(F)c(Oc3ccc(F)cc3)c2)cc1Cl` [Compound 67], the “Mortality(%) 48 Hours After” value is given as 0%.

In a further data set the test system is common cutworm (third-instar larvae). Nature of the data set: Test 1 (Effect on Common Cutworm). The format is in vivo. The following applies: Spodoptera litura, 48 h. The protocol: as §1
The emulsifiable concentrate of the test compound, prepared according to the method described in Formulation Example 1, was diluted with water to a specified concentration. Sweet potato leaves were sufficiently immersed in the dilution. The sweet potato leaves were dried and placed in a plastic cup having a diameter of 10 cm, and 10 third-instar larvae of common cutworm were set free in each cup. 48 hours after, the numbers of killed and living larvae were counted and the mortality was calculated.
Molecule `COP(=O)(OC)OC=C(Cl)Cl` [(a), 0,0-dimethyl-0-(2,2-dichlorovinyl)phosphate, reference compound] returned a mortality at 20 ppm of 0% and a mortality at 100 ppm of 60%.

Still in this data set, the particulars now being: Spodoptera litura; 20 ppm; 48 hours; third-instar larvae; read-out: Mortality (%).
Consider `CC(C)(CCCc1cccc(Oc2ccccc2)c1)c1ccc(Cl)cc1` [Compound 8, 1-(3-phenoxyphenyl)-4-(4-chlorophenyl)-4-methylpentane], for which the mortality at 20 ppm was 95%.

With `CC(C)(CCCc1cccc(Oc2ccccc2)c1)c1ccccc1` [Compound 17], the mortality at 20 ppm amounted to 50%.

Take `CC(C)(CCCc1cccc(Oc2ccccc2)c1)c1ccc(OC(F)(F)C(F)F)cc1` [Compound 65]: the mortality at 20 ppm was determined as 100%.

With `CCOc1ccc(C(C)(C)CCCc2ccc(F)c(Oc3ccc(F)cc3)c2)cc1Cl` [Compound 67], the mortality at 20 ppm came to 60%.

Staying with this data set, now noted: Spodoptera litura; 100 ppm; 48 hours; third-instar larvae; read-out: Mortality (%).
Regarding `CC(C)(CCCc1cccc(Oc2ccccc2)c1)c1ccc(Cl)cc1` [Compound 8, 1-(3-phenoxyphenyl)-4-(4-chlorophenyl)-4-methylpentane], the mortality at 100 ppm stood at 100%.

As to `CC(C)(CCCc1cccc(Oc2ccccc2)c1)c1ccccc1` [Compound 17], the mortality at 100 ppm was found to be 100%.

Take `CC(C)(CCCc1cccc(Oc2ccccc2)c1)c1ccc(OC(F)(F)C(F)F)cc1` [Compound 65]: the mortality at 100 ppm stood at 100%.

Turning to `CCOc1ccc(C(C)(C)CCCc2ccc(F)c(Oc3ccc(F)cc3)c2)cc1Cl` [Compound 67], the mortality at 100 ppm was found to be 100%.
